The values below come from ChEMBL document CHEMBL3352063, “Transition state mimetics of the Plasmodium export element are potent inhibitors of Plasmepsin V from P. falciparum and P. vivax” (J Med Chem, 2014).

The target in assay [1] is Plasmepsin V (Plasmodium falciparum (isolate 3D7)) (UniProt Q8I6Z5). Nature of the assay: Inhibition of Plasmodium falciparum plasmepsin V assessed as cleavage of wtKAHRP fluorogenic substrate at 1 uM.
The next assay addresses Plasmepsin V (Plasmodium falciparum (isolate 3D7), UniProt Q8I6Z5). The assay is described as follows: Inhibition of Plasmodium falciparum plasmepsin V assessed as cleavage of wtKAHRP fluorogenic substrate.
Another assay addresses Cathepsin D (Homo sapiens, UniProt P07339). Nature of the assay: Inhibition of human cathepsin D assessed as cleavage of wtKAHRP fluorogenic substrate.
The next assay concerns the target Beta-secretase 1 (Homo sapiens, UniProt P56817). The assay is described as follows: Inhibition of human BACE1 assessed as cleavage of TRF substrate.

Numbered stars: 1 amine (or outer) side, 2 acyl side, 3 side chain; on linkers, the order of the positions; unused ones are H or OH. Square brackets hold non-standard residues; d marks the D form. Peptide text beside a SMILES is read from it. * marks the point of attachment. Sta = CC(C)C[C@H](N)[C@@H](O)CC(=O)O; Hydrocinnamoyl = O=C(CCc1ccccc1)*; NHPhenethyl = c1ccc(CCN*)cc1; Isobutyryl = CC(C)C(=O)*; Piperidide = C1CCN(*)CC1; Pyrrolidide = C1CCN(*)C1; Cbz = O=C(OCc1ccccc1)*; PhAc = O=C(Cc1ccccc1)*; CO = O=C([*:1])[*:2]; NHBn = c1ccc(CN*)cc1; Alloc = C=CCOC(=O)*; Bz = O=C(c1ccccc1)*; NHPh = c1ccc(N*)cc1; GABA = NCCCC(=O)O; Ms = CS(=O)(=O)*; NHiPr = CC(C)N*; NHPr = CCCN*

Sequence of Beta-secretase 1 (P56817 whole entry): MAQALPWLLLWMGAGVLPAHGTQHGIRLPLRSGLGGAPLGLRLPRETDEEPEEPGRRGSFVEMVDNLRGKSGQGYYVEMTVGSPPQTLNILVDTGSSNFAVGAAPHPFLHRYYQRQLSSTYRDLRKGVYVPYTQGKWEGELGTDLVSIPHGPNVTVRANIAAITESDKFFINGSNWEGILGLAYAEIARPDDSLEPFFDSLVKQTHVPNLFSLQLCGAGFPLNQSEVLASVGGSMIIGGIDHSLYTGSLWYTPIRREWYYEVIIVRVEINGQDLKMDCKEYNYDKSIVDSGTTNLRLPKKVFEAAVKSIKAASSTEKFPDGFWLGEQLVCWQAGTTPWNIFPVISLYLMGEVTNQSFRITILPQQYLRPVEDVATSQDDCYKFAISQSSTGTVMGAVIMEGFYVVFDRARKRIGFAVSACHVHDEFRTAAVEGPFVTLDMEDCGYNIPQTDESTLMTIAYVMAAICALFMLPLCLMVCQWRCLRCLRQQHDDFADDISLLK
Sequence of Plasmepsin V (Q8I6Z5 whole entry): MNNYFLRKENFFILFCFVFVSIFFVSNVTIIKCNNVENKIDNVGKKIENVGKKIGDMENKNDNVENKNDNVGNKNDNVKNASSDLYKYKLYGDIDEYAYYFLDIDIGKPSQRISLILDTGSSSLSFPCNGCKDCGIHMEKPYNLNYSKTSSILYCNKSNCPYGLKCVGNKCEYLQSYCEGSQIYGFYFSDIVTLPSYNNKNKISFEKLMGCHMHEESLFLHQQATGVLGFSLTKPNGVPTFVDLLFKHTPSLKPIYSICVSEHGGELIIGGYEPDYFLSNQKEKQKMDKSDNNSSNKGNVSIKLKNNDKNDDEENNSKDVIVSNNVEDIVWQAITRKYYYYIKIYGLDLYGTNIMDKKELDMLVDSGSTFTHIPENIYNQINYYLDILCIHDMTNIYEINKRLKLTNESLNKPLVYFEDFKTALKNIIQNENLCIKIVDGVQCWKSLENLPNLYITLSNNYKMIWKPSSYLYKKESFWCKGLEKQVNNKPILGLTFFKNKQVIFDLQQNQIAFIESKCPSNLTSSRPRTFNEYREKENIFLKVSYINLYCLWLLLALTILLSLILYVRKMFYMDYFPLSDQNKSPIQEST
Sequence of Plasmepsin V (Plasmodium falciparum (isolate 3D7)) (Q8I6Z5 whole entry, looked up): as the sequence (Q8I6Z5 whole entry) above
Sequence of Cathepsin D (P07339 65-162 limits assumed): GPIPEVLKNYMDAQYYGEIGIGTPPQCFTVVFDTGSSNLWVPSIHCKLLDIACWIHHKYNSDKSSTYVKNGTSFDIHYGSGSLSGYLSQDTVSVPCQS
Sequence of Cathepsin D (P07339 169-412 limits assumed): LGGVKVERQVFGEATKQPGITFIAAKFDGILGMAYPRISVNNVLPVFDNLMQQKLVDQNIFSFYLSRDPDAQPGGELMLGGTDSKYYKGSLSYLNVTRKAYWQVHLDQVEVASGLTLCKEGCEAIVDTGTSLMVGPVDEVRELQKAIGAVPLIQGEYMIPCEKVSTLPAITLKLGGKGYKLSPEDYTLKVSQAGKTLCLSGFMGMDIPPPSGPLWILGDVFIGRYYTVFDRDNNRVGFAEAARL

Regarding `CC(C)C[C@H](NC(=O)[C@H](C)NC(=O)[C@H](CCCNC(=N)N)NC(=O)OCc1ccccc1)[C@@H](O)CC(=O)NC1CCCc2ccccc21` (stereo not given in full), in assay [1], the inhibition was 51%.

On to `CC(C)CNC(=O)C[C@H](O)[C@H](CC(C)C)NC(=O)[C@H](C)NC(=O)[C@H](CCCNC(=N)N)NC(=O)OCc1ccccc1`, for which the inhibition in assay [1] came to 49%.

`CC(C)C[C@H](NC(=O)[C@H](C)NC(=O)[C@H](CCCNC(=N)N)NC(=O)Nc1ccccc1)[C@@H](O)CC(=O)NCCc1ccccc1` ({NHPh-CO}-Arg-Ala-[Sta]-NHPhenethyl): the inhibition in assay [1] stood at 53%.

Consider `CC(C)CCNC(=O)C[C@H](O)[C@H](CC(C)C)NC(=O)[C@H](C)NC(=O)[C@H](CCCNC(=N)N)NC(=O)OCc1ccccc1`, for which the inhibition in assay [1] stood at 65%.

On to `CC(C)C[C@H](NC(=O)[C@H](C)NC(=O)[C@H](CCCNC(=N)N)NC(=O)NC1CCCC1)[C@@H](O)CC(=O)NCCc1ccccc1`, for which the inhibition in assay [1] turned out to be 41%.

As for `CC(C)C[C@H](NC(=O)[C@H](C)NC(=O)[C@H](CCCNC(=N)N)NC(=O)CCc1ccccc1)[C@@H](O)CC(=O)NCCc1ccccc1` (Hydrocinnamoyl-Arg-Ala-[Sta]-NHPhenethyl), in assay [1], the inhibition worked out at 68%.

For the compound `CC(C)C[C@H](NC(=O)[C@H](C)NC(=O)[C@H](CCCNC(=N)N)NC(=O)OCc1ccccc1)[C@@H](O)CC(=O)NC1CCC1`, the inhibition in assay [1] was 56%.

Regarding `CC(C)[C@H](NC(=O)[C@H](C)NC(=O)[C@H](CCCNC(=N)N)NC(=O)OCc1ccccc1)[C@@H](O)CC(=O)NC1CCCCC1`, the IC50 at Plasmepsin V is above 20 µM.

Consider `CC(C)C[C@H](NC(=O)[C@H](C)NC(=O)[C@H](CCCNC(=N)N)NC(=O)OCc1ccccc1)[C@@H](O)CC(=O)NCCc1ccc(Cl)cc1`, for which the IC50 is 0.348 µM on Plasmepsin V, above 100 µM on Cathepsin D and above 100 µM on Beta-secretase 1.

Turning to `CCCNC(=O)C[C@H](O)[C@H](CC(C)C)NC(=O)[C@H](C)NC(=O)[C@H](CCCNC(=N)N)NC(=O)OCc1ccccc1` (Cbz-Arg-Ala-[Sta]-NHPr), the inhibition in assay [1] worked out at 56%.

With `CC(C)C[C@H](NC(=O)[C@H](C)NC(=O)[C@H](CCCCN)NC(=O)OCc1ccccc1)[C@@H](O)CC(=O)NC1CCCCC1`, the IC50 at Plasmepsin V is above 20 µM; on Cathepsin D, above 100 µM; on Beta-secretase 1, above 100 µM.

Consider `CC(C)C[C@H](NC(=O)[C@H](C)NC(=O)[C@H](CCCNC(=N)N)NC(=O)OCc1ccccc1)[C@@H](O)CC(=O)N(C)Cc1ccccc1`, for which the inhibition in assay [1] was 30%.

`CC(C)C[C@H](NC(=O)[C@H](C)NC(=O)[C@H](CCCNC(=N)N)NC(=O)OCc1ccccc1)[C@@H](O)CC(=O)NC(C)C` (Cbz-Arg-Ala-[Sta]-NHiPr): the inhibition in assay [1] turned out to be 42%.

In the case of `CC(C)C[C@H](NC(=O)[C@H](C)NC(=O)[C@H](CCCNC(=N)N)NC(=O)c1ccccc1)[C@@H](O)CC(=O)NCCc1ccccc1` (Bz-Arg-Ala-[Sta]-NHPhenethyl), the values for the IC50 on Plasmepsin V, at Cathepsin D and at Beta-secretase 1 were 0.774 µM, above 100 µM and above 100 µM, respectively. The inhibition in assay [1] stood at 62%.

With `CC(C)COC(=O)N[C@@H](CCCNC(=N)N)C(=O)N[C@@H](C)C(=O)N[C@@H](CC(C)C)[C@@H](O)CC(=O)NCCc1ccccc1`, the inhibition in assay [1] was 47%.

Turning to `CC(C)C[C@H](NC(=O)[C@H](C)NC(=O)[C@H](CCCNC(=N)N)NC(=O)OCc1ccccc1)[C@@H](O)CC(=O)N1CCc2ccccc2C1`, the inhibition in assay [1] came to 45%.

In the case of `CCNC(=O)N[C@@H](CCCNC(=N)N)C(=O)N[C@@H](C)C(=O)N[C@@H](CC(C)C)[C@@H](O)CC(=O)NCCc1ccccc1` ({NHEt-CO}-Arg-Ala-[Sta]-NHPhenethyl), in assay [1], the inhibition is 26%.

As for `C[C@H](NC(=O)[C@H](CCCNC(=N)N)NC(=O)OCc1ccccc1)C(=O)N[C@@H](Cc1ccccc1)[C@@H](O)CC(=O)NC1CCCCC1`, the IC50 on Plasmepsin V was above 20 µM.

With `CC(C)C[C@H](NC(=O)[C@H](C)NC(=O)[C@H](CCCNC(=N)N)NC(=O)OCc1ccccc1)[C@@H](O)CC(=O)NC1CCCC1`, the inhibition in assay [1] turned out to be 52%.

For the compound `CC(C)C[C@H](NC(=O)[C@H](C)NC(=O)[C@H](CCCNC(=N)N)NC(=O)OCc1ccccc1)[C@@H](O)CC(=O)NCC1CCCCC1`, in assay [1], the inhibition came out at 63%.

As to `CC(C)C[C@H](NC(=O)[C@H](C)NC(=O)[C@H](CCCCNC(=N)N)NC(=O)OCc1ccccc1)[C@@H](O)CC(=O)NC1CCCCC1`, the IC50 at Plasmepsin V was above 20 µM.

On to `CC(C)C[C@H](NC(=O)[C@H](C)NC(=O)[C@H](CCCNC(=N)N)NS(=O)(=O)CCc1ccccc1)[C@@H](O)CC(=O)NCCc1ccccc1`, for which the inhibition in assay [1] is 78%.

As to `CC(=O)N[C@@H](CCCNC(=N)N)C(=O)N[C@@H](C)C(=O)N[C@@H](CC(C)C)[C@@H](O)CC(=O)NC1CCCCC1`, the values for the IC50 on Plasmepsin V, at Cathepsin D and on Beta-secretase 1 were 0.967 µM, above 100 µM and above 100 µM, respectively.

With `CC(C)C[C@H](NC(=O)[C@H](C)NC(=O)[C@H](CCCNC(=N)N)NC(=O)OCc1ccccc1)[C@@H](O)CC(=O)NCCCc1ccccc1`, the inhibition in assay [1] is 75%.

Take `C=CCOC(=O)N[C@@H](CCCNC(=N)N)C(=O)N[C@@H](C)C(=O)N[C@@H](CC(C)C)[C@@H](O)CC(=O)NCCc1ccccc1` (Alloc-Arg-Ala-[Sta]-NHPhenethyl): the inhibition in assay [1] was determined as 35%.

In the case of `CC(C)C[C@H](NC(=O)[C@H](C)NC(=O)[C@H](CCCNC(=N)N)NS(=O)(=O)C1CC1)[C@@H](O)CC(=O)NCCc1ccccc1`, in assay [1], the inhibition was determined as 80%.

Turning to `CC(C)C[C@H](NC(=O)[C@H](C)NC(=O)[C@H](CCCNC(=N)N)NC(=O)OCc1ccccc1)[C@@H](O)CC(=O)N(C)C` (Cbz-Arg-Ala-[Sta]-NMe2), the inhibition in assay [1] is 32%.

Turning to `CC(=O)N[C@@H](CCCNC(=N)N)C(=O)N[C@@H](C)C(=O)N[C@@H](CC(C)C)[C@@H](O)CC(=O)NCCc1ccccc1` (Ac-Arg-Ala-[Sta]-NHPhenethyl), the inhibition in assay [1] is 42%.

In the case of `CC(C)C[C@H](NC(=O)[C@H](C)NC(=O)[C@H](CCCNC(=N)N)NS(C)(=O)=O)[C@@H](O)CC(=O)NCCc1ccccc1` (Ms-Arg-Ala-[Sta]-NHPhenethyl), the inhibition in assay [1] is 53%.

`CC(C)C[C@H](NC(=O)[C@H](C)NC(=O)[C@H](CCCNC(=N)N)NC(=O)Cc1ccccc1)[C@@H](O)CC(=O)NCCc1ccccc1` (PhAc-Arg-Ala-[Sta]-NHPhenethyl): in assay [1], the inhibition is 59%.

As to `CC(=O)N[C@@H](CCCNC(=N)N)C(=O)N[C@@H](C)C(=O)N[C@@H](CC(C)C)[C@@H](O)CC(=O)N[C@@H](C)C(N)=O` (Ac-RA[Sta]A-NH2), the IC50 on Plasmepsin V was 0.613 µM; at Cathepsin D, above 100 µM; on Beta-secretase 1 it was above 100 µM.

For the compound `CC(C)C[C@H](NC(=O)[C@H](C)NC(=O)[C@H](CCc1ccccc1)NC(=O)OCc1ccccc1)[C@@H](O)CC(=O)NC1CCCCC1`, the IC50 at Plasmepsin V is above 20 µM; on Cathepsin D, 0.043 µM; at Beta-secretase 1, above 100 µM.

On to `CC(=O)N[C@@H](CCCNC(=N)N)C(=O)N[C@@H](C)C(=O)N[C@@H](CC(C)C)[C@@H](O)CC(=O)NCCCC(N)=O` (Ac-RA[Sta][GABA]-NH2), for which the IC50 at Plasmepsin V is 0.865 µM; on Cathepsin D, above 100 µM; on Beta-secretase 1, above 100 µM.

Take `CC(C)C[C@H](NC(=O)[C@H](C)NC(=O)[C@H](CCCNC(=N)N)NC(=O)OCc1ccccc1)[C@@H](O)CC(=O)N1CCCCC1` (Cbz-Arg-Ala-[Sta]-Piperidide): the inhibition in assay [1] came to 27%.

Take `CC(=O)N[C@@H](CCCNC(=N)N)C(=O)N[C@@H](C)C(=O)N[C@@H](CC(C)C)[C@@H](O)CC(=O)N[C@@H](CCC(N)=O)C(N)=O` (Ac-RA[Sta]Q-NH2): the results for the IC50 on Plasmepsin V, at Cathepsin D and on Beta-secretase 1 were 0.556 µM, above 100 µM and above 100 µM, respectively.

`CC(C)C[C@H](NC(=O)[C@H](C)NC(=O)[C@H](CCCNC(=N)N)NC(=O)C1CCCCC1)[C@@H](O)CC(=O)NCCc1ccccc1`: the inhibition in assay [1] was found to be 43%.

For `CC(C)C[C@H](NC(=O)[C@H](C)NC(=O)[C@H](CCCNC(=N)N)NC(=O)OCc1ccccc1)[C@@H](O)CC(=O)N(C)CCc1ccccc1`, the inhibition in assay [1] came to 11%.

With `CC[C@H](C)[C@H](NC(=O)[C@H](C)NC(=O)[C@H](CCCNC(=N)N)NC(=O)OCc1ccccc1)[C@@H](O)CC(=O)NC1CCCCC1`, the IC50 on Plasmepsin V was above 20 µM.

In the case of `CC(C)C[C@H](NC(=O)[C@H](Cc1ccccc1)NC(=O)[C@H](CCCNC(=N)N)NC(=O)OCc1ccccc1)[C@@H](O)CC(=O)NC1CCCCC1`, the figures for the IC50 on Plasmepsin V, on Cathepsin D and on Beta-secretase 1 were 0.23 µM, 4.8 µM and above 100 µM, respectively.

For the compound `CC(C)C[C@H](NC(=O)[C@H](C)NC(=O)[C@H](CCCNC(=N)N)NC(=O)NCc1ccccc1)[C@@H](O)CC(=O)NCCc1ccccc1` ({NHBn-CO}-Arg-Ala-[Sta]-NHPhenethyl), in assay [1], the inhibition stood at 32%.

Regarding `CC(C)C[C@H](NC(=O)[C@H](C)NC(=O)[C@H](CCCNC(=N)N)NC(=O)OCc1ccccc1)[C@@H](O)CC(=O)N1CCCC1` (Cbz-Arg-Ala-[Sta]-Pyrrolidide), the inhibition in assay [1] came to 13%.

Take `CC(C)C[C@H](NC(=O)[C@H](C)NC(=O)[C@H](CCCNC(=N)N)NC(=O)OCc1ccccc1)[C@@H](O)CC(=O)N1CCC(c2ccccc2)CC1`: the inhibition in assay [1] was determined as 13%.

As for `CC(C)C[C@H](NC(=O)[C@H](C)NC(=O)[C@H](CCCNC(=N)N)NC(=O)OCc1ccccc1)[C@@H](O)CC(=O)N(C)C(C)c1ccccc1` (stereo not given in full), the inhibition in assay [1] stood at 30%.

On to `CC(C)C[C@H](NC(=O)[C@H](C)NC(=O)[C@H](CCCNC(=N)N)NC(=O)C(C)C)[C@@H](O)CC(=O)NCCc1ccccc1` (Isobutyryl-Arg-Ala-[Sta]-NHPhenethyl), for which the inhibition in assay [1] was found to be 49%.

As to `CC(C)C[C@H](NC(=O)[C@H](C)NC(=O)[C@H](CCCNC(=N)N)NC(=O)N(C)C)[C@@H](O)CC(=O)NCCc1ccccc1` ({NMe2-CO}-Arg-Ala-[Sta]-NHPhenethyl), the inhibition in assay [1] is 65%.

In the case of `CC(C)C[C@H](NC(=O)[C@H](C)NC(=O)[C@H](CCCNC(=N)N)NC(=O)OCc1ccccc1)[C@@H](O)CC(=O)NC1CC1`, in assay [1], the inhibition came to 55%.

For orientation: inhibition means the relative decrease from the control value, in per cent. By IC50 is commonly meant the midpoint of a concentration-inhibition curve.
